From patent US11987588B2, “Modulators of the beta-3 adrenergic receptor useful for the treatment or prevention of heart failure and disorders related thereto” (Arena Pharmaceuticals, Inc., priority 2017, dated 2024)

Target: Beta-3 Adrenergic Receptor (Homo sapiens (Human), UniProt P13945)
Test: Homogeneous Time-Resolved Fluorescence (HTRF) cAMP antagonist assay, IC50 determination
Format: cell-based
Details: CHO-K1 cells stably expressing recombinant receptor, isoproterenol at EC90
Outline: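 CHO-K1 cells stably expressing receptor, 1500 cells/well, preincubated briefly with 10-point 5-fold compound series (top final typically 10 or 100 μM) in PBS with 1 mM IBMX, then challenged with isoproterenol at EC90 for 1 h at room temperature. cAMP read by HTRF against on-plate standard curve; IC50 from dose-response.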

Sequence of Beta-3 Adrenergic Receptor (P13945 whole entry, species assumed): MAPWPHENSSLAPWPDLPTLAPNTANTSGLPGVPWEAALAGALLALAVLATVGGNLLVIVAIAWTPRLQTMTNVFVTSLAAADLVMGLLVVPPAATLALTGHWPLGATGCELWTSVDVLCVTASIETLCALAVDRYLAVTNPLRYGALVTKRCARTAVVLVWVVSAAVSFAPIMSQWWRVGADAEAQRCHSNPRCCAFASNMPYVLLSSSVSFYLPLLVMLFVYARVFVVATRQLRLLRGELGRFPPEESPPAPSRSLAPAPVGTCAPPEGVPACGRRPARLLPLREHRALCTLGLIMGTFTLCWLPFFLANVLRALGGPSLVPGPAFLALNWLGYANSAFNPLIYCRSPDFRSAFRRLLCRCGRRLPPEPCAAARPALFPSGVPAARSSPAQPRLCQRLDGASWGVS

Row | SMILES | IC50 [nM]
1 | CNS(=O)(=O)c1cccc(OC[C@@H](O)CNC2COC3(CCN(S(=O)(=O)c4cccc(-c5ccc(CN6CCSC6)cc5)c4)CC3)C2)c1 (stereo partly drawn) [Compound 346, 3-((2S)-2-hydroxy-3-(8-(4′-(thiazolidin-3-ylmethyl)biphenyl-3-ylsulfonyl)-1-oxa-8-azaspiro[4.5]decan-3-ylamino)propoxy)-N-methylbenzenesulfonamide] | 126
2 | CNS(=O)(=O)c1cccc(OC[C@@H](O)CNC2COC3(CCN(S(=O)(=O)c4cccc(-c5ccc(CNCCNC(C)=O)cc5)c4)CC3)C2)c1 (stereo partly drawn) [Compound 348, N-(2-((3′-(3-((S)-2-hydroxy-3-(3-(N-methylsulfamoyl)phenoxy)propylamino)-1-oxa-8-azaspiro[4.5]decan-8-ylsulfonyl)biphenyl-4-yl)methylamino)ethyl)acetamide] | 36.7
3 | CNS(=O)(=O)c1cccc(OC[C@@H](O)CNC2COC3(CCN(S(=O)(=O)c4ccc5c(c4)N(CC(C)C)CCO5)CC3)C2)c1 (stereo partly drawn) [Compound 349, 3-((2S)-2-hydroxy-3-(8-(4-isobutyl-3,4-dihydro-2H-benzo[b][1,4]oxazin-6-ylsulfonyl)-1-oxa-8-azaspiro[4.5]decan-3-ylamino)propoxy)-N-methylbenzenesulfonamide] | 67.9
4 | CNS(=O)(=O)c1cccc(OC[C@@H](O)CNC2COC3(CCN(S(=O)(=O)c4cccc(-c5ccc(CNC(=O)CC(=O)O)cc5)c4)CC3)C2)c1 (stereo partly drawn) [Compound 352, 3-((3′-(3-((S)-2-hydroxy-3-(3-(N-methylsulfamoyl)phenoxy)propylamino)-1-oxa-8-azaspiro[4.5]decan-8-ylsulfonyl)biphenyl-4-yl)methylamino)-3-oxopropanoic acid] | 167
5 | CNS(=O)(=O)c1cccc(OC[C@@H](O)CNC2COC3(CCN(S(=O)(=O)c4ccc5c(c4)NCCO5)CC3)C2)c1 (stereo partly drawn) [Compound 355, 3-((2S)-3-(8-(3,4-dihydro-2H-benzo[b][1,4]oxazin-6-ylsulfonyl)-1-oxa-8-azaspiro[4.5]decan-3-ylamino)-2-hydroxypropoxy)-N-methylbenzenesulfonamide] | 17.2
6 | O=S(=O)(NCCF)c1cccc(OC[C@@H](O)CNC2COC3(CCN(S(=O)(=O)c4ccc5ccccc5c4)CC3)C2)c1 (stereo partly drawn) [Compound 356, N-(2-fluoroethyl)-3-((2S)-2-hydroxy-3-(8-(naphthalen-2-ylsulfonyl)-1-oxa-8-azaspiro[4.5]decan-3-ylamino)propoxy)benzenesulfonamide] | 16.9
7 | CNS(=O)(=O)c1cccc(OC[C@@H](O)CN[C@@H]2COC3(CCN(S(=O)(=O)c4cccc(-c5ccc(CNC(C)C)cc5)c4)CC3)C2)c1 [Compound 359, 3-((S)-2-hydroxy-3-((S)-8-(4′-((isopropylamino)methyl)biphenyl-3-ylsulfonyl)-1-oxa-8-azaspiro[4.5]decan-3-ylamino)propoxy)-N-methylbenzenesulfonamide] | 17.9
8 | CNS(=O)(=O)c1cccc(OC[C@@H](O)CN[C@@H]2COC3(CCN(S(=O)(=O)c4cccc(-c5ccc(CNCC(C)C)cc5)c4)CC3)C2)c1 [Compound 360, 3-((S)-2-hydroxy-3-((S)-8-(4′-((isobutylamino)methyl)biphenyl-3-ylsulfonyl)-1-oxa-8-azaspiro[4.5]decan-3-ylamino)propoxy)-N-methylbenzenesulfonamide] | 20.5
9 | CNS(=O)(=O)c1cccc(OC[C@@H](O)CN[C@H]2COC3(CCN(S(=O)(=O)c4cccc(-c5ccc(CNCC(C)C)cc5)c4)CC3)C2)c1 [Compound 363, 3-((S)-2-hydroxy-3-((R)-8-(4′-((isobutylamino)methyl)biphenyl-3-ylsulfonyl)-1-oxa-8-azaspiro[4.5]decan-3-ylamino)propoxy)-N-methylbenzenesulfonamide] | 123
10 | CNS(=O)(=O)c1cccc(OC[C@@H](O)CN[C@H]2COC3(CCN(S(=O)(=O)c4cccc(-c5ccc(CNCCC(C)C)cc5)c4)CC3)C2)c1 [Compound 364, 3-((S)-2-hydroxy-3-((R)-8-(4′-((isopentylamino)methyl)biphenyl-3-ylsulfonyl)-1-oxa-8-azaspiro[4.5]decan-3-ylamino)propoxy)-N-methylbenzenesulfonamide] | 144
11 | CNS(=O)(=O)c1cccc(OC[C@@H](O)CNC2COC3(CCN(S(=O)(=O)c4cc(-c5ccc(CN)cc5)ccc4C)CC3)C2)c1 (stereo partly drawn) [Compound 365, 3-((2S)-3-(8-(4′-(aminomethyl)-4-methylbiphenyl-3-ylsulfonyl)-1-oxa-8-azaspiro[4.5]decan-3-ylamino)-2-hydroxypropoxy)-N-methylbenzenesulfonamide] | 20.7
12 | CNS(=O)(=O)c1cccc(OC[C@@H](O)CNC2COC3(CCN(S(=O)(=O)c4ccc(OC)c(-c5ccc(CN)cc5)c4)CC3)C2)c1 (stereo partly drawn) [Compound 366, 3-((2S)-3-(8-(4′-(aminomethyl)-6-methoxybiphenyl-3-ylsulfonyl)-1-oxa-8-azaspiro[4.5]decan-3-ylamino)-2-hydroxypropoxy)-N-methylbenzenesulfonamide] | 27.5

Further compounds by falling IC50, results first:

Row | IC50 [nM] | SMILES
13 | 107 | CNS(=O)(=O)c1cccc(OC[C@@H](O)CNC2COC3(CCN(S(=O)(=O)c4cccc(-c5ccc(CN[C@@H](CO)C(N)=O)cc5)c4)CC3)C2)c1 (stereo partly drawn) [Compound 345, (2S)-3-hydroxy-2-((3′-(3-((S)-2-hydroxy-3-(3-(N-methylsulfamoyl)phenoxy)propylamino)-1-oxa-8-azaspiro[4.5]decan-8-ylsulfonyl)biphenyl-4-yl)methylamino)propanamide]
14 | 58 | CNS(=O)(=O)c1cccc(OC[C@@H](O)CNC2COC3(CCN(S(=O)(=O)c4cccc(-c5ccc(CNC(=O)CN)cc5)c4)CC3)C2)c1 (stereo partly drawn) [Compound 353, 2-amino-N-((3′-(3-((S)-2-hydroxy-3-(3-(N-methylsulfamoyl)phenoxy)propylamino)-1-oxa-8-azaspiro[4.5]decan-8-ylsulfonyl)biphenyl-4-yl)methyl)acetamide]
15 | 42.7 | CNS(=O)(=O)c1cccc(OC[C@@H](O)CN[C@H]2COC3(CCN(S(=O)(=O)c4ccc5ncccc5c4)CC3)C2)c1 [Compound 344, 3-((S)-2-hydroxy-3-((R)-8-(quinolin-6-ylsulfonyl)-1-oxa-8-azaspiro[4.5]decan-3-ylamino)propoxy)-N-methylbenzenesulfonamide]
16 | 38.6 | CCN1CCOc2ccc(S(=O)(=O)N3CCC4(CC3)C[C@@H](NC[C@H](O)COc3cccc(S(=O)(=O)NC)c3)CO4)cc21 [Compound 351, 3-((S)-3-((R)-8-(4-ethyl-3,4-dihydro-2H-benzo[b][1,4]oxazin-6-ylsulfonyl)-1-oxa-8-azaspiro[4.5]decan-3-ylamino)-2-hydroxypropoxy)-N-methylbenzenesulfonamide]
17 | 35.2 | CNS(=O)(=O)c1cccc(OC[C@@H](O)CNC2COC3(CCN(S(=O)(=O)c4cccc(-c5ccc(CNC(=O)C(N)=O)cc5)c4)CC3)C2)c1 (stereo partly drawn) [Compound 354, N^1-((3′-(3-((S)-2-hydroxy-3-(3-(N-methylsulfamoyl)phenoxy)propylamino)-1-oxa-8-azaspiro[4.5]decan-8-ylsulfonyl)biphenyl-4-yl)methyl)oxalamide]
18 | 33.5 | CNS(=O)(=O)c1cccc(OC[C@@H](O)CNC2COC3(CCN(S(=O)(=O)c4cccc(-c5ccc(CNCCF)cc5)c4)CC3)C2)c1 (stereo partly drawn) [Compound 347, 3-((2S)-3-(8-(4′-((2-fluoroethylamino)methyl)biphenyl-3-ylsulfonyl)-1-oxa-8-azaspiro[4.5]decan-3-ylamino)-2-hydroxypropoxy)-N-methylbenzenesulfonamide]
19 | 27.7 | CNS(=O)(=O)c1cccc(OC[C@@H](O)CN[C@@H]2COC3(CCN(S(=O)(=O)c4ccc5ncccc5c4)CC3)C2)c1 [Compound 343, 3-((S)-2-hydroxy-3-((S)-8-(quinolin-6-ylsulfonyl)-1-oxa-8-azaspiro[4.5]decan-3-ylamino)propoxy)-N-methylbenzenesulfonamide]
20 | 27.5 | CNS(=O)(=O)c1cccc(OC[C@@H](O)CN[C@H]2COC3(CCN(S(=O)(=O)c4cccc(-c5ccc(CNC(C)C)cc5)c4)CC3)C2)c1 [Compound 362, 3-((S)-2-hydroxy-3-((R)-8-(4′-((isopropylamino)methyl)biphenyl-3-ylsulfonyl)-1-oxa-8-azaspiro[4.5]decan-3-ylamino)propoxy)-N-methylbenzenesulfonamide]
21 | 22.1 | CNS(=O)(=O)c1cccc(OC[C@@H](O)CN[C@@H]2COC3(CCN(S(=O)(=O)c4cccc(-c5ccc(CNCCC(C)C)cc5)c4)CC3)C2)c1 [Compound 361, 3-((S)-2-hydroxy-3-((S)-8-(4′-((isopentylamino)methyl)biphenyl-3-ylsulfonyl)-1-oxa-8-azaspiro[4.5]decan-3-ylamino)propoxy)-N-methylbenzenesulfonamide]
22 | 21.8 | CCN1CCOc2ccc(S(=O)(=O)N3CCC4(CC3)C[C@H](NC[C@H](O)COc3cccc(S(=O)(=O)NC)c3)CO4)cc21 [Compound 350, 3-((S)-3-((S)-8-(4-ethyl-3,4-dihydro-2H-benzo[b][1,4]oxazin-6-ylsulfonyl)-1-oxa-8-azaspiro[4.5]decan-3-ylamino)-2-hydroxypropoxy)-N-methylbenzenesulfonamide]
23 | 16.1 | CNS(=O)(=O)c1cccc(OC[C@@H](O)CNC2COC3(CCN(S(=O)(=O)c4cc(-c5ccc(CN)cc5)cc5c4OCC5)CC3)C2)c1 (stereo partly drawn) [Compound 358, 3-((2S)-3-(8-(5-(4-(aminomethyl)phenyl)-2,3-dihydrobenzofuran-7-ylsulfonyl)-1-oxa-8-azaspiro[4.5]decan-3-ylamino)-2-hydroxypropoxy)-N-methylbenzenesulfonamide]
24 | 15.7 | CNS(=O)(=O)c1cccc(OC[C@@H](O)CNC2COC3(CCN(S(=O)(=O)c4cc(-c5ccc(CN)cc5)ccc4OC)CC3)C2)c1 (stereo partly drawn) [Compound 357, 3-((2S)-3-(8-(4′-(aminomethyl)-4-methoxybiphenyl-3-ylsulfonyl)-1-oxa-8-azaspiro[4.5]decan-3-ylamino)-2-hydroxypropoxy)-N-methylbenzenesulfonamide]
